Laboratory results: paper PMC10945739, “Exploring Cassia mimosoïdes as a promising natural source of steroids with potent anti-cancer, urease inhibition, and antimicrobial properties” (RSC Advances, 2024)
Converted amounts (≈) assume the structure as drawn. Where two headings read alike, the source gives them in different places.

Experiments:
[1] = target: Jack bean urease (Canavalia ensiformis, UniProt P07374); experiment: biochemical; assay type: biochemical; details: for inhibition at 500 µM: pH 6.8, read-out: % Inhibition of urease
Description: The inhibition potential of the isolated compounds against urease was investigated using a SpectraMax M2 reader using 96-well microplates.
The kinetic assay involved preparing varying concentrations of both the test compound and the substrate (urea), spanning 0 μM, 5 μM, 10 μM, 15 μM, and 20 μM. The resulting data was utilized to construct a Lineweaver–Burk plot.
In 96-well plates were incubated at 37 °C for 15 min, reaction mixtures consisting of 25 μL of test compounds (each 0.5 mM), 25 μL of enzyme solution (Jack bean urease) and 55 μL of buffers containing 20.79 mM urea. The indophenol method described by Weatherburn[21] was used to determine urease inhibitor activity by measuring ammonia production. Briefly, to each well were added 70 μL of alkaline reagent (0.5% w/v NaOH and 0.1% active chloride, NaOCl) and 45 μL of phenolic reagent (1% w/v phenol and 0.005% w/v sodium nitroprusside). The microplate reader (Molecular Devices, USA) was used to measure the increase in absorbance at 650 nm after 50 min. A final volume of 245 μL was required to perform all reactions in a triplicate. The results (absorbance change per minute) were processed using SoftMax Pro software (Molecular Devices, USA). All assays were performed at pH 6.8. Inhibition percentages were calculated from the formula% Inhibition = 100 − (Abs(sample)/Abs(control)) × 100where “A” is the absorbance of the “test well” as well as the “control”. Thiourea was used as a standard.

[2] = test system: human HepG2 hepatic cancer cells; experiment: MTT cell viability assay; assay type: cell-based; details: Homo sapiens; for IC50: HepG2, calculated using Graph Pad Prism software, read-out: IC50 against HepG2; for viability at 200 µg: HepG2, 48 h
Description: The human liver cells were cultivated in Dulbecco's modified Eagle medium (DMEM) in which 100 U mL^−1 penicillin, 10% fetal bovine and […] streptomycin were added and kept at 37 °C in a […] carbon dioxide induced humidified environment. The human liver cells prepared as per above procedure were then treated with synthesized compounds diluted to 0.05% DMSO concentration.
Using MTT assay, the % viability of cancer cells 36 was evaluated. According to the standard procedure, HepG2 cells were treated with various dosages of synthesized compounds for 48 hours each. The cells were then incubated for 4 hours at 37 °C with 10μ MTT reagent (5 mg mL^−1). Next, in 150 μL DMSO was added to dissolve formazan crystals. The λmax was recorded at 409 nm in a microplate reader (thermos scientific).

[3] = test system: Alternaria alternata; experiment: Antifungal bioassay, poisoned medium technique; assay type: cell-based; details: 168 h, read-out: MIC values against Alternaria alternata
Description: (§1) Anti-microbial assays of the isolated componds were performed against the selected strain of fungi i.e., Alternaria alternata, Aspergillus fumigatus, Aspergillus niger, and Penicillium citrii.
(§2) Alternaria alternata, Aspergillus fumigatus, Aspergillus niger, and Penicillium citrii strains were obtained from the Biotechnology lab at COMSATS University Islamabad. The antifungal activity of isolated compounds was assessed using poisoned medium technique. Two percent malt extract agar medium was generated by autoclaving at 121 °C for 30 minutes. Weighed volumes of the compounds were dissolved in […] of sterilized distilled water and put to flasks containing 59.5 mL of malt extract agar medium while they were still molten to obtain final concentrations of 100, 300, 500, 700, 900, and 1000 ppm. The control received the same amount of distilled water. Each sterile Petri plate with a diameter of 90 mm was filled with 20 mL of each medium and allowed to solidify. 5 mm diameter mycelial discs were produced from the tips of 5–7 day-old cultures of the four test fungus species and put in the center of each Petri dish using a sterile cork borer. Every treatment was duplicated three times. Plates were cultured in an incubator at 25 ± 2 °C for seven days. To calculate the rate of fungal growth, the three diameters of each colony were measured at right angles and averaged. Table 2 MIC values (μM) of the isolated compounds against Alternaria alternata, Aspergillus fumigatus, Aspergillus niger, and Penicillium citrii strains.[19]

[4] = test system: Aspergillus fumigatus; experiment: Antifungal bioassay, poisoned medium technique; assay type: cell-based; details: 168 h, read-out: MIC values against Aspergillus fumigatus
Description: as §1, §2

[5] = test system: Aspergillus niger; experiment: Antifungal bioassay, poisoned medium technique; assay type: cell-based; details: 168 h, read-out: MIC values against Aspergillus niger
Description: as §1, §2

[6] = test system: Penicillium citrii; experiment: Antifungal bioassay, poisoned medium technique; assay type: cell-based; details: 168 h, read-out: MIC values against Penicillium citrii
Description: as §1, §2

[7] = test system: H.pylori; experiment: Antibacterial activity, agar well diffusion method; assay type: cell-based, Helicobacter pylori; details: Helicobacter pylori; abstract; read-out: MIC against H. pylori
From the text: Antibacterial activity of the isolated and synthesized compounds was perform using agar well method. Three bacterial strains selected for this experiment were H.pylori, B. subtilis and S. aureus, for all of three strains compounds show good to mederate inhibition. […] The presence of H. pylori in the stomach has been associated with a range of gastric disorders, including peptic ulcers, gastritis, and an increased risk of gastric cancer. The bacterium's ability to manipulate the gastric environment through urease activity underscores its role in the development and progression of these conditions. Different studies have targeted H. pylori and its urease activity as potential avenues for therapeutic intervention and disease management (Fig. 4).
The agar well diffusion method evaluated every compound separately. Each sterile Petri plate was aseptically filled with 20 mL of the agar medium, which was then […]. The media then solidified at room temperature. Various bacterial strains were put to agar plates using a sterile cotton swab. A 6 mm-diameter well was drilled using a sterilized cork borer. Each isolated compound was dissolved in 1 mL of a 20% DMSO solution. In a well with a diameter of 6 mm, […] of the standard drug and isolated compounds were added. […] The zone of inhibition was graphed and quantified in millimeters.[20]

[8] = test system: S. aureus; experiment: Antibacterial activity, agar well diffusion method; assay type: cell-based, Staphylococcus aureus; details: Staphylococcus aureus; abstract; read-out: MIC against S. aur
Description: The agar well diffusion method evaluated every compound separately. Each sterile Petri plate was aseptically filled with 20 mL of the agar medium, which was then autoclaved at 120 °C to destroy any germs. The media then solidified at room temperature. Various bacterial strains were put to agar plates using a sterile cotton swab. A 6 mm-diameter well was drilled using a sterilized cork borer. […] In a well with a diameter of 6 mm, 20 mL of the standard drug and isolated compounds were added. At 37 °C, the test plates were incubated for 24 hours. The test plates were incubated at 37 °C for 24 hours. The standard disc containing 50 mg of ciprofloxacin served as a positive control for antibacterial activity, and DMSO served as a negative control.

[9] = poisoned medium, 25 ± 2 °C, seven days
[10] = HepG2, MTT, 48 hours, at 200 μg

Chain of Jack bean urease (P07374 whole entry, looked up): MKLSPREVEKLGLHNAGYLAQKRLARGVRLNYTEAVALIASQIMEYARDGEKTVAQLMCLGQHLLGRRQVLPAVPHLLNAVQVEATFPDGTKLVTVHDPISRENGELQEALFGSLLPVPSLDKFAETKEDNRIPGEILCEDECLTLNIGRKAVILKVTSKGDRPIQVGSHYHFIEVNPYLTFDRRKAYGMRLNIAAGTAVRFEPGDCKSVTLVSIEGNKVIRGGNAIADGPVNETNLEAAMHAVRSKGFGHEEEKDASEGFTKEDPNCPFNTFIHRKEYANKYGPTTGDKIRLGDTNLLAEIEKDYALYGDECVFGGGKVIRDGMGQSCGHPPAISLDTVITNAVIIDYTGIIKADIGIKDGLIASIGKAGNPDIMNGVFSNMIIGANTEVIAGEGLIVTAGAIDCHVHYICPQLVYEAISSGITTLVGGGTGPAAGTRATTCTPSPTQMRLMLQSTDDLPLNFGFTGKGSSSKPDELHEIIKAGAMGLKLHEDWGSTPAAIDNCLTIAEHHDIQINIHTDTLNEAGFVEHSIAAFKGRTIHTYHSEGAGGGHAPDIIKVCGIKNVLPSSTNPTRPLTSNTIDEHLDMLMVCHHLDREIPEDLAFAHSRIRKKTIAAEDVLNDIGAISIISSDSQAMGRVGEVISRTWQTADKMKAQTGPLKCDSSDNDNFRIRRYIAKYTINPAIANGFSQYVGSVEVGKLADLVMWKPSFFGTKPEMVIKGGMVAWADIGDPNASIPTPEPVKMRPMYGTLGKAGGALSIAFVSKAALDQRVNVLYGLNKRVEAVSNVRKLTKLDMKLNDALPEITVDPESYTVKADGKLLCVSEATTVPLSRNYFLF

Structure (SMILES)	inhibition at 500 µM [1] [%]	MIC [3, 9] [µM]	MIC [4, 9] [µM]	MIC [5, 9] [µM]	MIC [6, 9] [µM]	IC50 [1] [µM]	other results
CC[C@H](CC[C@@H](C)[C@H]1CC[C@H]2[C@@H]3CC(=O)C4=CC(=O)CC[C@]4(C)[C@H]3CC[C@]12C)C(C)C [Compound 9, Stigmast-4-en-3,6-dione]	13.4						IC50 [2]: 7.8 µM
O=c1cc(-c2ccc(O)c(O)c2)oc2cc(O)ccc12 [Compound 3, 3′,4′,7-Trihydroxyflavone]		0.056 ± 0.001 (≈ 15.1 ng/mL)	0.013 ± 0.003 (≈ 3.51 ng/mL)	0.032 ± 0.005 (≈ 8.65 ng/mL)	0.016 ± 0.01 (≈ 4.32 ng/mL)		
O=c1cc(-c2ccc(O)c(O)c2)oc2c([C@@H]3O[C@H](CO)[C@@H](O)[C@H](O)[C@H]3O)c(O)cc(O)c12 [Luteolin-8-C-β-D-glucopyranoside]							MIC [3]: 0.021 ± 0.005 µM (≈ 9.42 ng/mL); MIC [4]: 0.014 ± 0.005 µM (≈ 6.28 ng/mL); MIC [5]: 0.013 ± 0.006 µM (≈ 5.83 ng/mL); MIC [6]: 0.015 ± 0.008 µM (≈ 6.73 ng/mL)
CCC(CCC(C)C1CCC2C3CC(O)C4=CC(=O)CCC4(C)C3CCC12C)C(C)C (stereo not shown) [Synthesized compound]	69						IC50 ([1]; read-out: IC50 ± SEM, urease, pH 6.8): 8.03 ± 0.19 µM
O=c1cc(-c2ccc(O)c(O)c2)oc2cc(O)c([C@@H]3O[C@H](CO)[C@@H](O)[C@H](O)[C@H]3O)c(O)c12 [Luteolin-6-C-β-D-glucopyranoside]		0.06 ± 0.007 (≈ 26.9 ng/mL)	0.25 ± 0.003 (≈ 112 ng/mL)	0.0072 ± 0.0003 (≈ 3.23 ng/mL)	0.022 ± 0.003 (≈ 9.86 ng/mL)		
O=c1cc(-c2ccc(O)cc2)oc2c([C@@H]3O[C@H](CO)[C@@H](O)[C@H](O)[C@H]3O)c(O)cc(O)c12 [Compound 5, Apigenin-8-C-β-D-glucopyranoside]	77.5					4.73 ± 0.22	viability at 200 µg [2]: 94.7 ± 7.4%
Cc1cc(O)c2c(c1)C(=O)c1cccc(O)c1C2=O [Chrysophanol]		0.012 ± 0.003 (≈ 3.05 ng/mL)	0.06 ± 0.001 (≈ 15.3 ng/mL)	0.03 ± 0.002 (≈ 7.63 ng/mL)	0.05 ± 0.001 (≈ 12.7 ng/mL)		
O=c1cc(-c2ccc(O)c(O)c2)oc2cc(O)cc(O)c12 [Compound 2, Luteolin]	82	0.043 ± 0.002 (≈ 12.3 ng/mL)	0.01 ± 0.004 (≈ 2.86 ng/mL)	0.021 ± 0.001 (≈ 6.01 ng/mL)	0.05 ± 0.002 (≈ 14.3 ng/mL)	1.3 ± 0.28	viability at 200 µg [2, 10]: 82.5 ± 4.31%
COc1cc(O)c2c(c1)C(=O)c1cc(C)cc(O)c1C2=O [Compound 13, Physcion]	63.5					6.24 ± 0.3	viability at 200 µg [2]: 87.4 ± 2.55%
COc1cc(O)cc2oc(-c3ccc(O)c(O)c3)cc(=O)c12 [Compound 4, Luteolin-5-methyl ether]	82.7					3.87 ± 0.24	viability at 200 µg [2, 10]: 90.5 ± 2.15%
Cc1cc(O)c2c(c1)C(=O)c1cc(O)cc(O)c1C2=O [Emodin]		0.01 ± 0.006 (≈ 2.7 ng/mL)	0.035 ± 0.005 (≈ 9.46 ng/mL)	0.04 ± 0.003 (≈ 10.8 ng/mL)	0.045 ± 0.005 (≈ 12.2 ng/mL)		
CCC(CCC(C)C1CCC2C3CC(=O)C4=CC(=O)CCC4(C)C3CCC12C)C(C)C (stereo not shown) [Stigmast-4-en-3,6-dione]		0.15 ± 0.005 (≈ 64 ng/mL)	0.125 ± 0.0015 (≈ 53.3 ng/mL)	0.02 ± 0.006 (≈ 8.53 ng/mL)	0.04 ± 0.003 (≈ 17.1 ng/mL)		
Cc1cc(O)c2c(c1)C(=O)c1cc(O)cc(O)c1C2=O [Compound 11, Emodin]	72.9					5.2 ± 0.14	viability at 200 µg [2, 10]: 83.89 ± 0.73%
CC[C@H](CC[C@@H](C)[C@H]1CC[C@H]2[C@@H]3C[C@H](O)C4=C[C@@H](O)CC[C@]4(C)[C@H]3CC[C@]12C)C(C)C [Stigmast-4-en-3β,6α-diol]		0.045 ± 0.003 (≈ 19.4 ng/mL)	0.01 ± 0.006 (≈ 4.31 ng/mL)	0.015 ± 0.005 (≈ 6.46 ng/mL)	0.2 ± 0.03 (≈ 86.1 ng/mL)		
O=c1cc(-c2ccc(O)cc2)oc2c([C@@H]3O[C@H](CO)[C@@H](O)[C@H](O)[C@H]3O)c(O)cc(O)c12 [Apigenin-8-C-β-D-glucopyranoside]							MIC [3]: 0.025 ± 0.007 µM (≈ 10.8 ng/mL); MIC [4]: 0.01 ± 0.006 µM (≈ 4.32 ng/mL); MIC [5]: 0.015 ± 0.001 µM (≈ 6.49 ng/mL); MIC [6]: 0.01 ± 0.006 µM (≈ 4.32 ng/mL)
CCCCCCCCCCCCCCCCCCC(=O)O [Compound 14, Nonadecanoic acid]	80.4					1.95 ± 0.31	
O=c1cc(-c2ccc(O)c(O)c2)oc2c([C@@H]3O[C@H](CO)[C@@H](O)[C@H](O)[C@H]3O)c(O)cc(O)c12 [Compound 6, Luteolin-8-C-β-D-glucopyranoside]	71.5					5.03 ± 0.12	viability at 200 µg [2, 10]: 89.2 ± 2.5%
COc1cc(O)cc2oc(-c3ccc(O)c(O)c3)cc(=O)c12 [Luteolin-5-methyl ether]		0.03 ± 0.006 (≈ 9.01 ng/mL)	0.04 ± 0.002 (≈ 12 ng/mL)	0.01 ± 0.006 (≈ 3 ng/mL)	0.06 ± 0.004 (≈ 18 ng/mL)		
CC[C@H](CC[C@@H](C)[C@H]1CC[C@H]2[C@@H]3CC=C4C[C@@H](O)CC[C@]4(C)[C@H]3CC[C@]12C)C(C)C [Compound 15, β-Sitosterol]	80					2.78 ± 0.24	viability at 200 µg [2]: 94.4 ± 4.42%
COc1cc(O)c2c(c1)C(=O)c1cc(C)cc(O)c1C2=O [Physcion]		0.015 ± 0.005 (≈ 4.26 ng/mL)	0.035 ± 0.006 (≈ 9.95 ng/mL)	0.09 ± 0.009 (≈ 25.6 ng/mL)	0.03 ± 0.005 (≈ 8.53 ng/mL)		
CC[C@H](CC[C@@H](C)C1CCC2C3CC=C4C[C@@H](O[C@@H]5O[C@H](CO)[C@@H](O)[C@H](O)[C@H]5O)CC[C@]4(C)C3CC[C@@]21C)C(C)C (stereo partly drawn) [Compound 16, β-Sitosterol 3-O-β-D-glucopyranoside]	19.5						viability at 200 µg [2, 10]: 96.4 ± 2.2%
Cc1cc(O)c2c(c1)C(=O)c1cccc(O)c1C2=O [Compound 12, Chrysophanol]	78.2					5.92 ± 0.25	viability at 200 µg [2, 10]: 59.3 ± 2.2%
C=C(CCC(=CC)C(C)C)C1CCC2C3=CCC4C(C)C(O)CCC4(C)C3CCC12C (stereo not shown) [Compound 1, 21-methylene-24-ethylidene lophenol]	82.3					1.02 ± 0.35	MIC [7]: 0.28 µg/mL (≈ 0.659 µM); MIC [8]: 0.12 µg/mL (≈ 0.283 µM); mode of inhibition, Lineweaver–Burk plot ([1]; urea and compound 0–20 μM): competitive
CC[C@H](CC[C@@H](C)[C@H]1CC[C@H]2[C@@H]3C[C@H](O)C4=C[C@@H](O)CC[C@]4(C)[C@H]3CC[C@]12C)C(C)C [Compound 10, Stigmast-4-en-3β,6α-diol]	76.6					6.68 ± 0.11	viability at 200 µg [2, 10]: 14.5 ± 0.68%; IC50 [2]: 7.8 µM
NC(N)=S [thiourea, reference compound]							IC50 ([1]; pH 6.8, read-out: IC50 ± SEM, urease): 18.61 ± 0.11 µM; IC50 ([1]; read-out: IC50, urease (conclusions)): 18.61 ± 0.11 µM; % Inhibition of urease ([1]; test compounds each 0.5 mM, pH 6.8): 86.73%
